SMILES strings stand for the structures. Where “and” joins values, the source holds several entries; their conditions need not be identical. Equal values may be shown once.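 Following 48 hours of exposure in 96-well plates, responses at five concentrations were used to interpolate endpoints linearly. Abbreviation: GI50, concentration required for 50% inhibition of growth. TGI: concentration producing complete growth inhibition.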

What all share (test): DTP human tumour cell line panel, 48 h
In test [1] the test system is CAKI-1 renal.
The test system of test [2] is DU-145 prostate.
The subject of test [3] is IGROV1 ovarian.
In test [4] the test system is KM12 colon.
Test [5] deals with MOLT-4 leukemia.
The test system of test [6] is RXF 393 renal.
For test [7], the system named is SK-MEL-2 melanoma.
Test [8] has as its system UO-31 renal.
The test system of test [9] is HOP-92 NSCLC.
The test system of test [10] is RPMI-8226 leukemia.

Consider `COc1ccc(C[C@H]2C[C@@H](O)[C@@H](C)C/C=C/Cc3cccc(O)c3C(=O)O2)cn1`, for which the GI50 in [1] is 21.8 µM; in [2], 27.7 µM; in test [3], 13 µM; in test [4] it was 23.5 µM; in [5] it was 35.4 µM; in [6], 30.5 µM. For the same compound, the figures for the GI50 in test [7] and in test [8] were 14.7 µM and 19.9 µM, respectively. Also, the TGI in [1] is 54.6 µM; in test [2] it was > 100 µM; in [3] it was 34.4 µM; in [4] it was 62.4 µM; in test [5] it was > 100 µM; in [6], > 100 µM. For the same compound, the TGI was determined as 34.5 µM in test [7] and 66.1 µM in test [8].
As to `N#CC1c2ccccc2-c2ccccc2N1C(=O)c1ccccc1` (centres undefined), the GI50 was 1.72 µM in test [2]; 2.42 µM in test [9]; 2.66 µM in [3]; 1.16 µM in test [4]; 1.73 µM in test [5]; 0.903 µM in [10]. The GI50 in [6] is 0.913 µM; in test [7] it was 2.78 µM; in test [8], 3.63 µM. In addition, the concentration for total growth inhibition (TGI) in test [2] was 4.21 µM; in [9], 19.9 µM; in test [3], 7.01 µM; in [4], 4.17 µM; in test [5], > 100 µM; in test [10], 5.32 µM. Further, the TGI in [6] was 13.2 µM; in test [7], > 29.6 µM; in test [8] it was > 59.4 µM.
Take `COc1cc2oc3ccccc3c(=O)c2cc1CSc1ccccc1N`: the TGI in test [1] is > 100 µM; in [2], > 84.9 µM; in test [9], > 100 µM; in test [3], > 100 µM; in test [4], 84 µM; in test [5], 26.1 µM. Moreover, the TGI was > 87.6 µM in test [10], > 45.5 µM in test [6] and > 77.6 µM in test [7].
For the compound `O=C(Oc1c(I)ccccc1=O)c1ccc([N+](=O)[O-])cc1`, the TGI in test [1] came to 55.1 µM; in test [2], 26.8 µM; in test [3], 29.2 µM; in test [4] it was 35.6 µM; in [10], 88 µM; in test [6] it was 21.7 µM. Further, the concentration for total growth inhibition (TGI) was found to be 45.1 µM in test [7] and 68.9 µM in test [8].
Take `O=C1c2c(O)cccc2C(C(=O)CCCCC(=O)C2c3cccc(O)c3C(=O)c3c(O)cccc32)c2cccc(O)c21`: the GI50 was 3.24 µM in test [1]; 1.3 µM in [9]; 0.664 µM and 1.37 µM in test [3]; 0.884 µM in [4]; 1.8 µM in test [5]; 1.04 µM in test [10]. The GI50 in test [7] was 1.24 µM; in test [8] it was 1.11 µM. Also, the TGI was 8.43 µM and 9.38 µM in test [1]; 1.81 µM in [2]; 1.69 µM and 2.8 µM in [9]; 1.74 µM and 3.7 µM in test [3]; 1.31 µM and 1.68 µM in test [4]; 5.42 µM and 9.97 µM in test [5]. In addition, the TGI was 1.3 µM and 3.08 µM in [10]; 1.22 µM and 2.46 µM in [7]; 1.01 µM and 2.38 µM in test [8].
Turning to `CN1C(=O)c2cc(Cl)nc3c(NC(=O)c4cccc(Cl)c4)c(Cl)c(NC(=O)c4cccc(Cl)c4)c1c23`, the GI50 in [2] was 2.28 µM; in [9] it was 1.71 µM; in test [3] it was 1.42 µM; in [4] it was 3.44 µM; in [5] it was 2.07 µM; in [10], 3.63 µM. For the same compound, the GI50 in test [6] is 1.67 µM; in test [7], 2.19 µM; in [8] it was 1.71 µM. The TGI worked out at 5.19 µM in test [2]; 3.41 µM in [9]; 3.15 µM in test [3]; 15.5 µM in [4]; 5.21 µM in [5]; 32.6 µM in [10]. The results for the TGI in test [6], in [7] and in test [8] were 3.12 µM, 4.35 µM and 3.44 µM, respectively.
With `O=C(OCc1ccccc1CN1CCOCC1)c1ccc(Br)cc1`, the TGI in [2] is > 100 µM; in [9], > 100 µM; in [3], > 100 µM; in test [10], 49.7 µM; in test [6], > 100 µM; in test [7], > 100 µM. Moreover, in test [8], the TGI is > 100 µM.
In the case of `O=C1C=C(Nc2cccc(Br)c2)c2ccccc2C1=O`, the GI50 in test [1] was 4.16 µM; in test [2] it was 0.569 µM; in [3], 10.5 µM; in [4], 4.13 µM; in [5], 18.4 µM; in test [10], 22.2 µM. Further, the results for the GI50 in test [6], in test [7] and in test [8] were 3.27 µM, 0.785 µM and 1.81 µM, respectively. Also, the TGI was > 100 µM in [1]; 14 µM in [2]; 37.5 µM in test [3]; > 100 µM in [4]; 42.7 µM in test [5]; > 100 µM in test [10]. Further, the TGI in test [6] was 22.4 µM; in [7], 22 µM; in test [8], 33.6 µM.
As for `COC(=O)[C@H](Cc1ccccc1)NC(=O)c1csc([C@@H](C[C@H](C(C)C)N(C)C(=O)[C@@H](NC(=O)[C@H]2CCCCN2C)C2CC2)OC(C)=O)n1`, the GI50 in [2] is 0.0218 µM; in test [9] it was 0.137 µM; in [3], 0.0452 µM; in [4], 0.0844 µM; in [5] it was 0.0362 µM; in [10], 0.019 µM. The GI50 is 0.0351 µM in test [6], 0.492 µM in test [7] and 0.258 µM in test [8]. The TGI in test [2] is > 25 µM; in [9] it was 4.18 µM; in test [3], > 25 µM; in test [4], > 25 µM; in test [5] it was > 25 µM; in [10], > 25 µM. Also, the TGI in test [6], in test [7] and in test [8] was > 25 µM each time.
As for `CCOC(=O)c1cnc2[nH]c(=O)c3ccccc3n2c1=O`, the TGI in test [1], in test [9], in test [3], in test [4], in test [5] and in [10] was > 100 µM throughout. In addition, the TGI in test [6], in [7] and in [8] was > 100 µM throughout.
In the case of `O=C1c2ccccc2-c2cc3ccccc3c(=O)n21`, the TGI in [2], in test [3], in test [4], in [10], in test [7] and in [8] was > 100 µM throughout.
